Assay results from paper PMC4815073, “Targeting of tubulin polymerization and induction of mitotic blockage by Methyl 2-(5-fluoro-2-hydroxyphenyl)-1H-benzo[d]imidazole-5-carboxylate (MBIC) in human cervical cancer HeLa cell” (Journal of Experimental & Clinical Cancer Research : CR, 2016).

Assays:
HCT-116 cells = experiment: MTT cytotoxicity assay, HCT-116; type: cell-based, human; conditions: for IC50: Homo sapiens, MTT
Description: (§1) The human cervical cancer cell-line, HeLa (CCL-2.2; ATCC, Manassas, VA), HCT-116 (CCL-247; ATCC, Manassas, VA), A549 (CCL-185; ATCC, Manassas, VA), HepG-2 (HB-8065; ATCC, Manassas, VA) and WRL-68 (CL-48; ATCC, Manassas, VA), were obtained from American Type Culture Collection (ATCC). HeLa, A549, HepG2 and WRL68 cells were maintained in Dulbecco’s Modified Eagle Medium (DMEM, Life Technologies, Inc, Rockville, MD). HCT-116 was obtained in McCoy’s 5a Medium Modified (Life Technologies, Inc, Rockville, MD) supplemented with 10 % fetal bovine serum and 1 % penicillin/streptomycin. Cells were incubated at 37 °C in a humidified cell culture 5 % CO2 incubator. Cells were passaged until reaching 70-80-% confluency for experimental purposes.
(§2) Cytotoxicity of MBIC was estimated by MTT assay. Briefly, 1 × 10^4 cells/well were seeded in a 96-well plate and incubated at 37 °C in 5 % CO2. After 24 h, cells were treated with different concentrations (0.02, 0.04, 0.1, 0.2, 0.4, 0.8, 1.5, 3, 6, 12, 25, 50 μM) of MBIC. 0.01 % DMSO was used as vehicle control. Cells were incubated for 24 and 48 h at 37 °C. Subsequently, 50 μl/well of 3-(4,5-dimethylthiazol-2-yl)-2,5-diphenyltetrazolium bromide (MTT, 2 mg/ml) was added and incubated for 2 h. After the incubation, the media was discarded and 100 μl DMSO was replaced into each well to dissolve the formazan crystal. The colorimetric assay was quantified at 570 nm wavelength using Chameleon V microplate reader (Hidex, Turku, Finland). The anti-proliferation activity of MBIC was expressed as an IC50 value. The percentage of cell viability was calculated as described previously.

HepG-2 cells = experiment: MTT cytotoxicity assay, HepG-2; type: cell-based, human; conditions: for IC50: Homo sapiens, HepG2, MTT
Description: as §1, §2

WRL-68 cells = experiment: MTT cytotoxicity assay, WRL-68 normal liver cells; type: cell-based, human; conditions: Homo sapiens
Description: as §1, §2

[1] = tested on: human cancer cell lines (HCT-116, A549, HepG-2, HeLa); experiment: MTT cytotoxicity assay, human cancer cell lines taken together; type: cell-based
Description: as §1
as §2, with “Subsequently, 50 μl/well of 3-(4,5-dimethylthiazol-2-yl)-2,5-diphenyltetrazolium bromide (MTT, 2 mg/ml) was added and incubated for 2 h. After the incubation, the media was discarded and 100 μl DMSO was replaced into each well to dissolve the formazan crystal.” left out

HeLa cells [2] = experiment: Cell cycle analysis (PI, flow cytometry); type: cell-based, human; conditions: 24 h
Method: Cell cycle analysis was performed using propidium iodide (PI). Briefly, cells were seeded in a 25 cm^2 flask, then 60 % confluent cells were treated with MBIC for 24 and 48 h. Following incubation, the cells were harvested and spun down for 5 min at 2000 rpm. The supernatant was removed and cells were then fixed in 1 ml of ice-cold 70 % ethanol overnight at -80 °C. Fixed cells were washed with 1 ml 1X PBS and stained in 500 μl of PI containing 5 μg/ml DNase-free RNase for 30 min at room temperature in total darkness. DNA content of the cell was analyzed by flow cytometry. The percentage of G0-G1, S and G2-M cells were then calculated using Fluorescence-activated cell sorting (FACS) software (BD Biosciences).

[3] = tested on: HeLa cells expressing EGFP-α-tubulin, EGFP-CENP-A and histone H2B-mCherry; experiment: Live-cell imaging of mitotic spindle; type: cell-based, human; conditions: MBIC 10 μM, nocodazole 2 μM; imaged at 15 min intervals
Method: HeLa cells expressing EGFP-α-tubulin, EGFP-CENP-A and histone H2B-mCherry were grown in glass chambers (Thermo Scientific, USA). Thirty minutes before imaging, the medium was changed to pre-warmed Leibovitz’s L-15 medium (Life Technologies) supplemented with 20 % fetal bovine serum and 20 mM HEPES, pH 7.0. Recordings were made in a temperature-controlled incubator at 37 °C. Images were collected with an Olympus IX-71 inverted microscope (Olympus) controlled by DeltaVision softWoRx (Applied Precision) using a 20x 0.75 NA UPlan SApochromat objective lens (Olympus). Z-series of six sections in 3 μm increments were captured every 15 min. Image stacks were projected.

[4] = tested on: Bcl-2, Bax, cleaved caspase-3/7/9, cleaved PARP; experiment: Western blot, mitochondrial-dependent apoptotic proteins in HeLa cells; type: cell-based, human; conditions: HeLa, 0.21, 0.42 and 1 μM, 24 h
Method: Western blot analysis was used to investigate protein expression levels. It was adopted by Suresh Kumar et al.. Briefly, 1 × 10^5 cells/flask was seeded and treated with MBIC in a dose-dependent manner for 24 h. Cells treated with colchicine and nocodazole served as positive controls. Cells were collected and lysed in RIPA buffer supplemented with a 10 μl protease inhibitor cocktail, sodium orthovanadate, and PMSF (Santa Cruz, USA). The lysate was stored at −80 °C until further use. A 40 μg of sample protein was resolved on 10 % SDS-PAGE and transferred to a polyvinylidene difluoride (PVDF) membrane (Merck Millipore, USA). The membrane was blocked in 5 % BSA for 1 h at room temperature following an overnight incubation at 4 °C with the following primary antibodies: Anti-Cyclin B1, anti-CDK1, anti-BubR1, anti-Aurora B, anti-cleaved PARP, anti-cleaved caspase-3/7/9, anti-Bcl-2 and anti-Bax (1:1000) (Cell Signaling Technology (CST), USA), mouse anti β-actin (1:40000) (Sigma-Aldrich, USA) antibodies.
Membranes were washed with 1X TBS-T prior to incubating with HRP-conjugated goat anti-mouse or anti-rabbit secondary antibodies for 2 h at room temperature. Membranes were washed 3 times with 1X TBS-T to remove excess antibodies before the proteins-antibody complex was detected with Amersham ECL prime western blotting detection reagent (GE Healthcare, USA). Western blot images were quantified and processed by ImageJ software (NIH, USA).

HeLa cells [5] = experiment: Drug combination assay (MTT, Chou-Talalay, CampuSyn); type: cell-based; conditions: Homo sapiens, 24 h, drug alone, read-out: (Dm)IC50 Drug 2 (MBIC alone)
Method: In order to discover the synergistic effects of MBIC with conventional drugs briefly, cells were seeded in 1 × 10^4 cells/well and were incubated at 37 °C overnight. […] Also, the MBIC, combined with each of the selected conventional drugs in a 1:1 ratio, were diluted in concentration from 50 μM to 0.1 μM. Cell viability assay (MTT assay) was performed 24 h post-treatment and absorbance were measured in a microplate reader to find out the IC50 for each conventional drug alone and in combination with MBIC on HeLa cells. For this analysis, we used the commercial software package CampuSyn (Biosoft, Cambridge, United Kingdom; Ref.9). […] Furthermore, the software produced an automated isobologram and fraction affected-combination index (Fa-CI) plot.

COC(=O)c1ccc2[nH]c(-c3cc(F)ccc3O)nc2c1 [MBIC, Methyl 2-(5-fluoro-2-hydroxyphenyl)-1H-benzo[d]imidazole-5-carboxylate] was tested. Which IC50 (HCT-116 cells; HCT-116, 24 hours) did it give?
Its IC50 is 2720 ± 400 nM.

And the IC50 (HCT-116 cells; HCT-116, 48 hours)?
Its IC50 is 2010 ± 300 nM.

What about the “SI (Selectivity Index)” value (HCT-116 cells; IC50 WRL-68 / IC50 HCT-116, 24 hours) of the same compound?
The value was 3.70.

What about the “SI (Selectivity Index)” value (HCT-116 cells; IC50 WRL-68 / IC50 HCT-116, 48 hours) of the same compound?
Its value is 3.56.

And the IC50 (HepG-2 cells; HepG-2, 24 hours)?
The IC50 was 2920 ± 100 nM.

What about the IC50 (HepG-2 cells; HepG-2, 48 hours) of the same compound?
Its IC50 is 1030 ± 90 nM.

And the “SI (Selectivity Index)” value (HepG-2 cells; IC50 WRL-68 / IC50 HepG-2, 24 hours)?
Its value is 3.45.

And the “SI (Selectivity Index)” value (HepG-2 cells; IC50 WRL-68 / IC50 HepG-2, 48 hours)?
Its value is 6.95.

And the IC50 (WRL-68 cells; WRL68, 24 hours)?
Its IC50 is 10100 ± 1200 nM.

What about the IC50 (WRL-68 cells; WRL68, 48 hours) of the same compound?
The IC50 was 7160 ± 900 nM.

What about the IC50 [1] of the same compound?
The IC50 was less than 5000 nM.

And the G2-M cell population (HeLa cells [2]; 0.21 μM)?
The G2-M cell population was 26.7 ± 6.3%.

What about the G2-M cell population (HeLa cells [2]; 1 μM) of the same compound?
Its G2-M cell population is 42.8 ± 6.4%.

And the “mitotic spindle formation in live-cell imaging” value [3]?
The value was “did not form the spindle”.

And the “Bax protein level (Western blot)” value [4]?
Its value is “up-regulation”.

And the “Bcl-2 protein level (Western blot)” value [4]?
The value was “down-regulation”.

And the “cleaved (activated) caspase-3/7/9 level (Western blot)” value [4]?
The value was “increased”.

What about the “cleaved PARP level (Western blot)” value [4] of the same compound?
The value was “increased level”.

And the IC50 (HeLa cells [5])?
Its IC50 is 210 ± 20 nM.
